Consider three molecules from ChEMBL document CHEMBL3351879, “Isolation, structure elucidation, relative LC-MS response, and in vitro toxicity of azaspiracids from the dinoflagellate Azadinium spinosum” (J Nat Prod, 2014).

What all share (type): functional, cell-based
Assay [1] is described as follows: Cytotoxicity against human Jurkat E6-1 cells assessed as cell viability after 72 hrs by MTS assay.
Assay [2] in a line: Cytotoxicity against human Jurkat E6-1 cells assessed as cell viability after 48 hrs by MTS assay. For orientation: Tetrazolium assays rely on reduction of a dye to a coloured formazan, in cell work by metabolically active cells.
The nature of assay [3]: Cytotoxicity against human Jurkat E6-1 cells assessed as cell viability after 24 hrs by MTS assay.

As usually defined, the EC50 is the midpoint of the concentration-response curve.

`C=C(C[C@]12C[C@@H](C)C[C@H](O1)[C@H]1O[C@]3(C[C@H]1O2)NC[C@H](C)C[C@@H]3C)[C@H]1O[C@@](O)([C@H](O)[C@@H]2C[C@H]3O[C@@]4(CC[C@]5(CC=C[C@@H](/C=C/CCC(=O)O)O5)O4)[C@H](C)C[C@H]3O2)[C@H](C)C[C@@H]1C`: the EC50 in assay [1] came to 1.3 nM; in assay [2], 1.1 nM; in assay [3] it was 0.96 nM.

`C=C(C[C@@]12C[C@@H](C)C[C@@H](O1)[C@H]1O[C@]3(C[C@H]1O2)NC[C@H](C)C[C@@H]3C)[C@H]1O[C@@](O)([C@H](O)[C@@H]2C[C@H]3O[C@@]4(CC[C@]5(CC=C[C@@H](CCC(=O)O)O5)O4)[C@H](C)C[C@H]3O2)[C@H](C)C[C@@H]1C`: the EC50 stood at 0.2 nM in assay [1], 0.18 nM in assay [2] and 0.23 nM in assay [3].

As for `C=C(C[C@@]12C[C@@H](C)C[C@@H](O1)[C@H]1O[C@]3(C[C@H]1O2)NC[C@H](C)C[C@@H]3C)[C@H]1O[C@@](O)([C@H](O)[C@@H]2CC[C@@H](C/C=C/CC/C=C/CCC(=O)O)O2)[C@H](C)C[C@@H]1C`, the values for the EC50 in assay [1], in assay [2] and in assay [3] were 6.4 nM, 5.9 nM and 3.3 nM, respectively.
